Test results as given in ChEMBL document CHEMBL1139859, “Structures of pahayokolides A and B, cyclic peptides from a Lyngbya sp” (J Nat Prod, 2007).
Starred links: 1 amine or outer side, 2 acyl side, 3 side chain; linkers in the order of their positions; H or OH if unused. Positions of bridges follow the written chain, without caps; N, C: chain ends. Non-standard residues stand in square brackets, D forms with d. Residues, ends and D or L forms follow the SMILES beside them. ξ: configuration not given here. X2 = CC(=O)N(C)[C@@H](CC(C)C)C(=O)O[C@@H](CC(O)C(O)CC(C)C)CC(N[*:2])C(O)C(=O)[*:1]; hPhe = N[C@@H](CCc1ccccc1)C(=O)O; X1 = C/C=C(/N[*:1])C(=O)[*:2]; Dhb = C/C=C(\N)C(=O)O; ξT = CC(O)C(N)C(=O)O

Assays:
[1] = system: SK-MEL-28; test: Cytotoxicity against human SK-MEL-28 cells; format: cell-based
[2] = system: HT-29; test: Cytotoxicity against human HT29 cells; format: cell-based
[3] = system: SK-OV-3; test: Cytotoxicity against human SKOV3 cells; format: cell-based
[4] = Cytotoxicity against human SKBR3 cells; format: cell-based; settings: SK-BR-3
[5] = system: A498; test: Cytotoxicity against human A498 cells; format: cell-based
[6] = system: U-251; test: Cytotoxicity against human U251 cells; format: functional, cell-based
[7] = system: CCRF-CEM; test: Cytotoxicity against human CEM cells; format: cell-based
[8] = system: NCI-H460; test: Cytotoxicity against human H460 cells; format: cell-based

## C/C=C1\NC(=O)[C@H](Cc2ccccc2)NC(=O)[C@@H]2CCCN2C(=O)CNC(=O)[C@H](CCC(N)=O)NC(=O)C(O)C(C[C@H](CC(O)C(O)CC(C)C)OC(=O)[C@H](CC(C)C)N(C)C(C)=O)NC(=O)[C@@H]2CCCN2C(=O)[C@H](CCc2ccccc2)NC(=O)C(C(C)O)NC(=O)/C(=C\C)NC(=O)[C@H](CO)NC1=O (stereo partly drawn) [PAHAYOKOLIDES A] (QGPF[Dhb]S[X1][ξT][hPhe]P; linker N-C via X2)
[1]
  IC50: 5.74 µM
[2]
  IC50: 44.6 µM
[3]
  IC50: 2.76 µM
[4]
  IC50: 16.7 µM
[5]
  IC50: 2.61 µM
[6]
  IC50: 13.3 µM
[7]
  IC50: 3.27 µM
[8]
  IC50: 2.13 µM
